Data: patent publication US20240059689A1, “PURINE DERIVATIVES AS ANTICANCER AGENTS” (Tango Therapeutics, Inc., priority 2021, published 2024)
Like-named read-outs stand apart in the source and are kept apart here.

Assays:
USP1-UAF1 = USP1-UAF1 (Homo sapiens, UniProt O94782); test: Ubiquitin Rhodamine assay of USP1-UAF1 activity; assay type: biochemical
Method: Certain compounds of the disclosure were assessed for USP1-UAF1 activity in a Ubiquitin Rhodamine assay as described in Biology Example 1.

HCC1954 = test: Viability assay, BRCA1 WT cell line HCC1954; assay type: cell-based; details: read-out: HCC1954 rel IC50
From the text: (§1) Table 1 also indicates IC50 values in a viability assay for a non-isogenic pair of BRCA1 mutant (column 5-MDA-MB-436) and BRCA1 WT (column 6—HCC1954) cell lines. These values indicate the effect of treatment with compound on cell survival.

MDA-MB-436 = test: Viability assay, BRCA1 mutant cell line MDA-MB-436; assay type: cell-based; details: BRCA1 mutant MDA-MB-436, read-out: MDA-MB-436 rel IC50
From the text: as §1

[1] = Homo sapiens, HCC1954, viability
[2] = Homo sapiens, MDA-MB-436, viability

Sequence of USP1-UAF1 (O94782 whole entry): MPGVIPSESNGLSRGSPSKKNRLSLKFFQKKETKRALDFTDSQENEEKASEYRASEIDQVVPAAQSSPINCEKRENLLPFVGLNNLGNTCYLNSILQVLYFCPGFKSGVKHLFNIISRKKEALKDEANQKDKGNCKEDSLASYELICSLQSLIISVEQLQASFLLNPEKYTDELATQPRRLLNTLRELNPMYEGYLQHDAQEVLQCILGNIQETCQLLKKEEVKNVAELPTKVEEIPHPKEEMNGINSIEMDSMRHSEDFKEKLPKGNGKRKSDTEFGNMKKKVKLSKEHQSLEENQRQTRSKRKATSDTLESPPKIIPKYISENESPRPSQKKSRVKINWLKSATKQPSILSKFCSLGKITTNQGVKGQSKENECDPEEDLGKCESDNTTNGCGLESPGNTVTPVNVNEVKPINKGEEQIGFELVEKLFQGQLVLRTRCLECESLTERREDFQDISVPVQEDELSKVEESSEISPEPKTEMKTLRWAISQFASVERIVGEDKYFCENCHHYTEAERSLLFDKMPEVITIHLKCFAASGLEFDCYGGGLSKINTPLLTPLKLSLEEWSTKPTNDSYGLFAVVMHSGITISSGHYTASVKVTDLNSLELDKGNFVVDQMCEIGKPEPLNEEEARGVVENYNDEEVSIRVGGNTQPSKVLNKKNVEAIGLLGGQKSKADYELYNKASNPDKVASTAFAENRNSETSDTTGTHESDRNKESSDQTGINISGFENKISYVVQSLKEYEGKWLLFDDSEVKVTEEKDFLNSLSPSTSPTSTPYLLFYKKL
Sequence of USP1-UAF1 (Q8TAF3 whole entry partner): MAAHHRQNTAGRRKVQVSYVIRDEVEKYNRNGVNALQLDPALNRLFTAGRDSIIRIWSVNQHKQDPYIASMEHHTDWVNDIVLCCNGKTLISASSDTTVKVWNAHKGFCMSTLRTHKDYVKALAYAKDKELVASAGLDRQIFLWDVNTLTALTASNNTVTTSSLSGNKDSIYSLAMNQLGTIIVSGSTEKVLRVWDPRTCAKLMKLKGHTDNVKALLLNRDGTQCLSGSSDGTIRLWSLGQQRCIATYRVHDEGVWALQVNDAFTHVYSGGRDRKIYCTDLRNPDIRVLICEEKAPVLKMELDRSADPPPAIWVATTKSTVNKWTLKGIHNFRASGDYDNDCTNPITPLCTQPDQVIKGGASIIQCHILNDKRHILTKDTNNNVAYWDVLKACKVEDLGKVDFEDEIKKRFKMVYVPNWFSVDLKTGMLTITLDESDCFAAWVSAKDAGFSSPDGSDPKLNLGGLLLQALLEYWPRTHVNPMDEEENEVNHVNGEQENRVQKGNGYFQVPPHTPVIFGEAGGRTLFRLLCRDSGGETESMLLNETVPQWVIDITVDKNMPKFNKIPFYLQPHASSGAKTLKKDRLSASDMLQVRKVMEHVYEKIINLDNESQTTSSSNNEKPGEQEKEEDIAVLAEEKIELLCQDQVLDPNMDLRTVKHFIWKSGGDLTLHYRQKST

IC50 (USP1-UAF1) | IC50 (HCC1954; [1]) | IC50 (MDA-MB-436; [2]) | IC50 (HCC1954; viability) | IC50 (MDA-MB-436; viability) | SMILES
0.03 to 0.1 µM | – | – | – | – | Cc1cccc(Cl)c1-c1ncc2c(n1)n(Cc1ccc(-c3nc(C(F)(F)F)cn3C)cc1)c(=N)n2C [Example B-7, 2-(2-chloro-6-methylphenyl)-7-methyl-9-(4-(1-methyl-4-(trifluoromethyl)-1H-imidazol-2-yl)benzyl)-7,9-dihydro-8H-purin-8-imine]
0.1 to 10 µM | 0.25 to 10 µM | 0.25 to 10 µM | – | – | CC(C)c1ccccc1-c1ncc2c(n1)n(CC1CCC(c3nc(C(F)(F)F)cn3C)CC1)c(=N)n2C (centres unmarked) [Example T-006]
0.1 to 10 µM | ≥ 10 µM | 0.25 to 10 µM | – | – | COc1ncnc(C2CC2)c1-c1ncc2c(n1)n(Cc1ccc(-c3nc(C(F)(F)F)cn3C)s1)c(=N)n2C [Example T-007]
0.1 to 10 µM | ≥ 10 µM | 0.25 to 10 µM | – | – | Cc1cnn(C)c1-c1ncc2c(n1)n(Cc1ccc(-c3nc(C(F)(F)F)cn3C)cc1)c(=N)n2C [Example T-012]
0.1 to 10 µM | ≥ 10 µM | 0.25 to 10 µM | – | – | COc1ncnc(C2CC2)c1-c1ncc2c(n1)n(Cc1cc(-c3nc(C(F)(F)F)cn3C)cs1)c(=N)n2C [Example T-014]
0.1 to 10 µM | ≥ 10 µM | 0.25 to 10 µM | – | – | Cn1cc(C(F)(F)F)nc1-c1ccc(Cn2c(=N)n(C)c3cnc(-c4c(C5CC5)cnn4C)nc32)cc1 [Example T-017]
0.1 to 10 µM | ≥ 10 µM | 0.25 to 10 µM | – | – | Cn1cc(C(F)(F)F)nc1-c1ccc(Cn2c(=N)n(C)c3cnc(-c4c(C#N)cnn4C)nc32)cc1 [Example T-022]
0.1 to 10 µM | – | – | – | – | CC(C)c1ccccc1-c1ncc2c(n1)n(Cc1ccc(N3C[C@@H](C(F)(F)F)C[C@H]3C)cc1)c(=N)n2C [Example T-024]
0.1 to 10 µM | ≥ 10 µM | 0.25 to 10 µM | – | – | Cn1cc(C(F)(F)F)nc1-c1ccc(Cn2c(=N)n(C)c3cnc(-c4cccnc4C(F)(F)F)nc32)cc1 [Example T-025]
0.1 to 10 µM | ≥ 10 µM | 0.25 to 10 µM | – | – | COc1ncnc(C2CC2)c1-c1ncc2c(n1)n(Cc1cc(C)c(-c3nc(C(F)(F)F)cn3C)cc1C)c(=N)n2C [Example T-026]
0.1 to 10 µM | ≥ 10 µM | 0.25 to 10 µM | – | – | COc1nccc(C)c1-c1ncc2c(n1)n(Cc1ccc(-c3nc(C(F)(F)F)cn3C)cc1)c(=N)n2C [Example T-028]
0.1 to 10 µM | ≥ 10 µM | 0.25 to 10 µM | – | – | Cn1cc(C(F)(F)F)nc1-c1ccc(Cn2c(=N)n(C)c3cnc(-c4cccnc4C4(C#N)CC4)nc32)cc1 [Example T-041]
0.1 to 10 µM | ≥ 10 µM | 0.25 to 10 µM | – | – | Cn1cc(C(F)(F)F)nc1-c1ccc(Cn2c(=N)n(C)c3cnc(-c4cccnc4CC(F)(F)F)nc32)cc1 [Example T-042]
0.1 to 10 µM | ≥ 10 µM | 0.25 to 10 µM | – | – | COc1ncccc1-c1ncc2c(n1)n(C1(c3ccc(-c4nc(C(F)(F)F)cn4C)cc3)CC1)c(=N)n2C [Example T-043]
0.1 to 10 µM | ≥ 10 µM | 0.25 to 10 µM | – | – | Cn1cc(C(F)(F)F)nc1-c1cc(F)c(Cn2c(=N)n(C)c3cnc(-c4ccccc4C(F)(F)F)nc32)c(F)c1 [Example T-046]
0.1 to 10 µM | ≥ 10 µM | 0.25 to 10 µM | – | – | COn1cc(C(F)(F)F)nc1-c1ccc(Cn2c(=N)n(C)c3cnc(-c4ccccc4C(F)(F)F)nc32)nc1 [Example T-048]
0.1 to 10 µM | ≥ 10 µM | ≥ 10 µM | – | – | Cn1cc(C(F)(F)F)nc1-c1ccc(Cn2c(=N)n(C)c3cnc(-c4cccnc4C#N)nc32)cc1 [Example T-050]
0.1 to 10 µM | ≥ 10 µM | 0.25 to 10 µM | – | – | COc1cc(C(F)(F)F)nn1-c1ccc(Cn2c(=N)n(C)c3cnc(-c4ccccc4C(F)(F)F)nc32)cn1 [Example T-055]
0.1 to 10 µM | 0.25 to 10 µM | 0.25 to 10 µM | – | – | COc1ccn(-c2ccc(Cn3c(=N)n(C)c4cnc(-c5ccccc5C(C)C)nc43)cc2C)n1 [Example T-056]
0.1 to 10 µM | ≥ 10 µM | ≥ 10 µM | – | – | COc1ncncc1-c1ncc2c(n1)n(Cc1ccc(-c3nc(C(F)(F)F)cn3C)cc1)c(=N)n2C [Example T-058]
0.1 to 10 µM | ≥ 10 µM | 0.25 to 10 µM | – | – | Cc1noc(C)c1-c1ncc2c(n1)n(Cc1ccc(-c3nc(C(F)(F)F)cn3C)cc1)c(=N)n2C [Example T-062]
0.1 to 10 µM | 0.25 to 10 µM | 0.25 to 10 µM | – | – | Cn1c(=N)n(Cc2ccc(-c3nc(C(F)(F)F)c[nH]3)c(F)c2)c2nc(-c3ccccc3C(F)(F)F)ncc21 [Example T-068]
0.1 to 10 µM | – | – | – | – | CC(C)c1ccccc1-c1ncc2c(n1)n(Cc1ccc(-c3cccn3C)cc1)c(=N)n2C [Example T-088]

Second part, the molecule before the results:

SMILES | IC50 (USP1-UAF1) | IC50 (HCC1954; [1]) | IC50 (MDA-MB-436; [2]) | IC50 (HCC1954; viability) | IC50 (MDA-MB-436; viability)
CC(C)c1ccccc1-c1ncc2c(n1)n(Cc1ccc(N3CCC(C(F)(F)F)C3)cc1)c(=N)n2C (single isomer, unassigned) [Example A-10d, 2-(2-isopropylphenyl)-7-methyl-9-(4-(3-(trifluoromethyl)pyrrolidin-1-yl)benzyl)-7,9-dihydro-8H-purin-8-imine] | 0.1 to 10 µM | – | – | – | –
CC(C)c1ccccc1-c1ncc2c(n1)n(Cc1ccc(N3CCC(C(F)(F)F)C3)cc1)c(=N)n2C (single isomer, unassigned) [Example A-10e, 2-(2-isopropylphenyl)-7-methyl-9-(4-(3-(trifluoromethyl)pyrrolidin-1-yl)benzyl)-7,9-dihydro-8H-purin-8-imine] | 0.1 to 10 µM | – | – | – | –
Cc1nc(-c2ccccc2)nc2c1n(C)c(=N)n2Cc1ccc(-c2nc(C(F)(F)F)cn2C)cc1 (single isomer, unassigned) [Example A-15b, 6,7-dimethyl-9-(4-(1-methyl-4-(trifluoromethyl)-1H-imidazol-2-yl)benzyl)-2-phenyl-7,9-dihydro-8H-purin-8-imine] | 0.1 to 10 µM | 0.25 to 10 µM | 0.25 to 10 µM | – | –
CC(C)c1ccccc1-c1ncc2c(n1)n(C(C)C1CCN(c3nc(Cl)cn3C)CC1)c(=N)n2C (single isomer, unassigned) [Example A-26d, 9-(1-(1-(4-chloro-1-methyl-1H-imidazol-2-yl)piperidin-4-yl)ethyl)-2-(2-isopropylphenyl)-7-methyl-7,9-dihydro-8H-purin-8-imine] | 0.1 to 10 µM | – | – | ≥ 10 µM | 0.25 to 10 µM
CC(C)c1ccccc1-c1ncc2c(n1)n(Cc1ccc(-c3nccn3C)cc1)c(=N)n2C [Example A-2, 2-(2-isopropylphenyl)-7-methyl-9-(4-(1-methyl-1H-imidazol-2-yl)benzyl)-7H-purin-8(9H)-imine] | 0.1 to 10 µM | ≥ 10 µM | 0.25 to 10 µM | – | –
CC(C)c1ccccc1-c1ncc2c(n1)n(Cc1ccc(-c3ncc[nH]3)cc1)c(=N)n2C [Example A-4, 9-(4-(1H-imidazol-2-yl)benzyl)-2-(2-isopropylphenyl)-7-methyl-7H-purin-8(9H)-imine] | 0.1 to 10 µM | – | – | – | –
CC(C)c1ccccc1-c1ncc2c(n1)n(Cc1ccc(-c3cc(Cl)cn3C)cc1)c(=N)n2C [Example A-7, 9-(4-(4-chloro-1-methyl-1H-pyrrol-2-yl)benzyl)-2-(2-isopropylphenyl)-7-methyl-7,9-dihydro-8H-purin-8-imine] | 0.1 to 10 µM | 0.25 to 10 µM | 0.25 to 10 µM | – | –
COc1nc(-c2ccccc2C(C)C)nc2c1n(C)c(=N)n2Cc1ccc(-c2nc(C(F)(F)F)cn2C)cc1 [Example A-20, 2-(2-isopropylphenyl)-6-methoxy-7-methyl-9-(4-(1-methyl-4-(trifluoromethyl)-1H-imidazol-2-yl)benzyl)-7,9-dihydro-8H-purin-8-imine] | 0.1 to 10 µM | 0.25 to 10 µM | 0.25 to 10 µM | – | –
CC(C)c1ccccc1-c1nc(O)c2c(n1)n(Cc1ccc(-c3nc(C(F)(F)F)cn3C)cc1)c(=N)n2C [Example A-32, 8-imino-2-(2-isopropylphenyl)-7-methyl-9-(4-(1-methyl-4-(trifluoromethyl)-1H-imidazol-2-yl)benzyl)-8,9-dihydro-7H-purin-6-ol] | 0.1 to 10 µM | ≥ 10 µM | 0.25 to 10 µM | – | –
CNC(=O)c1nc(-c2ccccc2C(C)C)nc2c1n(C)c(=N)n2Cc1ccc(-c2nc(C(F)(F)F)cn2C)cc1 [Example A-39, 8-imino-2-(2-isopropylphenyl)-N, 7-dimethyl-9-(4-(1-methyl-4-(trifluoromethyl)-1H-imidazol-2-yl)benzyl)-8,9-dihydro-7H-purine-6-carboxamide] | 0.1 to 10 µM | ≥ 10 µM | 0.25 to 10 µM | – | –
CC(C)c1ccccc1-c1nc(C(=O)N(C)C)c2c(n1)n(Cc1ccc(-c3nc(C(F)(F)F)cn3C)cc1)c(=N)n2C [Example A-40, 8-imino-2-(2-isopropylphenyl)-N,N, 7-trimethyl-9-(4-(1-methyl-4-(trifluoromethyl)-1H-imidazol-2-yl)benzyl)-8,9-dihydro-7H-purine-6-carboxamide] | 0.1 to 10 µM | ≥ 10 µM | 0.25 to 10 µM | – | –
CC#Cc1nc(-c2ccccc2Cl)nc2c1n(C)c(=N)n2Cc1ccc(-c2nc(Cl)cn2C)cc1 [Example A-45, 9-(4-(4-chloro-1-methyl-1H-imidazol-2-yl)benzyl)-2-(2-chlorophenyl)-7-methyl-6-(prop-1-yn-1-yl)-7,9-dihydro-8H-purin-8-imine] | 0.1 to 10 µM | 0.25 to 10 µM | 0.25 to 10 µM | – | –
Cn1cc(Cl)nc1-c1ccc(Cn2c(=N)n(C)c3c(C#CC4CC4)nc(-c4ccccc4Cl)nc32)cc1 [Example A-46, 9-(4-(4-chloro-1-methyl-1H-imidazol-2-yl)benzyl)-2-(2-chlorophenyl)-6-(cyclopropylethynyl)-7-methyl-7,9-dihydro-8H-purin-8-imine] | – | 0.25 to 10 µM | 0.25 to 10 µM | – | –
